ChEMBL document CHEMBL1770085, “Homodimeric bis-quaternary heterocyclic ammonium salts as potent acetyl- and butyrylcholinesterase inhibitors: a systematic investigation of the influence of linker and cationic heads over affinity and selectivity” (J Med Chem, 2011)

Key:
Butyrylcholinesterase = Butyrylcholinesterase (Equus caballus, UniProt Q9N1N9)
Description: Inhibition of equine BChE after 20 mins using butyrylthiocholine iodide as a substrate by Ellman's assay

Acetylcholinesterase [1] = molecular target: T1, Acetylcholinesterase (Bos taurus, UniProt P23795)
T1 sequence (P23795 whole entry): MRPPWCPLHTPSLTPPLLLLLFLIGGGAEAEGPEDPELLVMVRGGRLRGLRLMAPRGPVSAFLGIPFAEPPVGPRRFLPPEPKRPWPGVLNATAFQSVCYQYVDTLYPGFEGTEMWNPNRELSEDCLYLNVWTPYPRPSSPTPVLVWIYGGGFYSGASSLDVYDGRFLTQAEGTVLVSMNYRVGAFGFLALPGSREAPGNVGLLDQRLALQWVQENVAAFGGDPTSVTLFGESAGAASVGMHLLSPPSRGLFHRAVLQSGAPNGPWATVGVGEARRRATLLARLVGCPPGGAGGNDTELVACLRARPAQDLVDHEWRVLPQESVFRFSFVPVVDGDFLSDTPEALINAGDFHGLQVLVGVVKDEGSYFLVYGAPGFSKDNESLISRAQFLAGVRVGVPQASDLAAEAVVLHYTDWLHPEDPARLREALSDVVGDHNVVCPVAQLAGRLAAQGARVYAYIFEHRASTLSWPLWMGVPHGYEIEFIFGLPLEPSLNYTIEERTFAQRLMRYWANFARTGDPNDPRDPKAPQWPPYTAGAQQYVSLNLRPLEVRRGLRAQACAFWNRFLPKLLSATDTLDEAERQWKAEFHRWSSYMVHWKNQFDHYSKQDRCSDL
Description: Inhibition of bovine AChE after 20 mins using acetylthiocholine iodide as a substrate by Ellman's assay

[2] = Selectivity index, ratio of IC50 for equine BChE to IC50 for bovine AChE
[3] = molecular target: T2, Acetylcholinesterase (Bos taurus) (UniProt P23795); assay: Inhibition of bovine AChE at 10 uM after 20 mins using acetylthiocholine iodide as a substrate by Ellman's assay
T2 sequence (whole entry): T1 sequence (P23795 whole entry)

Acetylcholinesterase [4] = molecular target: Acetylcholinesterase (Homo sapiens, UniProt P22303)
Description: Inhibition of human recombinant AChE after 20 mins using acetylthiocholine iodide as a substrate by Ellman's assay

Cholinesterase = Cholinesterase (Homo sapiens, UniProt P06276)
Chain of Cholinesterase (P06276 whole entry): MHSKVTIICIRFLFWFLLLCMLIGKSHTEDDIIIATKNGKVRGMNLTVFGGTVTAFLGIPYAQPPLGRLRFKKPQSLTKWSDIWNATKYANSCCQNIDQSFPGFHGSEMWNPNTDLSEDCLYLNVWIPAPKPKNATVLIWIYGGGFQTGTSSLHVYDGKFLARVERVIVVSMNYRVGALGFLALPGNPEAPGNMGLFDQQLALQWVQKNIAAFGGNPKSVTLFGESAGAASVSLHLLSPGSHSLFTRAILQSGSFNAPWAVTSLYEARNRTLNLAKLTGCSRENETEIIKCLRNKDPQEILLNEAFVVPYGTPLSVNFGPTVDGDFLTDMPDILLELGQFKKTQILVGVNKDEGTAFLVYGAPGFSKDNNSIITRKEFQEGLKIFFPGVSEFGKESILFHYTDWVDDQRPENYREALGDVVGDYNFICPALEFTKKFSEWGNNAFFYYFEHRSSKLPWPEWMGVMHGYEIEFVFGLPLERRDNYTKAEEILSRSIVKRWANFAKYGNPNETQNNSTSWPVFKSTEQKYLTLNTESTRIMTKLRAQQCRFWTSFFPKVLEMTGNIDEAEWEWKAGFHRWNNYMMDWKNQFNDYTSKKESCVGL
Description: Inhibition of human BChE after 20 mins using butyrylthiocholine iodide as a substrate by Ellman's assay

Chain of Butyrylcholinesterase (Q9N1N9 whole entry): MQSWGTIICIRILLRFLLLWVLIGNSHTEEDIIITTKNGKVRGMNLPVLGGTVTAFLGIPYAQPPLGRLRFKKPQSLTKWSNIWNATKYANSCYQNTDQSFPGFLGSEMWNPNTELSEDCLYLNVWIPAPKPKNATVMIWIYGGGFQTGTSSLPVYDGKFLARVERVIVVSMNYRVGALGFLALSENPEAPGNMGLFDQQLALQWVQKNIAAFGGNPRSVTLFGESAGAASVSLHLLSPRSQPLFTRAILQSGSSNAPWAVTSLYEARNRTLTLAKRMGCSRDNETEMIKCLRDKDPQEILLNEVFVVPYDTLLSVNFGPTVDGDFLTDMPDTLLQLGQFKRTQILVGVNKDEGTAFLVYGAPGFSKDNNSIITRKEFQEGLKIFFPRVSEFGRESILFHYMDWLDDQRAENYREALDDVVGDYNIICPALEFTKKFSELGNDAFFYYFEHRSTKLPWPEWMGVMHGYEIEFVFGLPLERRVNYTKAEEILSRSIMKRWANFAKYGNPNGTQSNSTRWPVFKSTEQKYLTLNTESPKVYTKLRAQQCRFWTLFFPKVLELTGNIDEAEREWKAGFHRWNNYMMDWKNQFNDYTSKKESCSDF
Chain of Acetylcholinesterase (Homo sapiens, UniProt P22303) (P22303 whole entry): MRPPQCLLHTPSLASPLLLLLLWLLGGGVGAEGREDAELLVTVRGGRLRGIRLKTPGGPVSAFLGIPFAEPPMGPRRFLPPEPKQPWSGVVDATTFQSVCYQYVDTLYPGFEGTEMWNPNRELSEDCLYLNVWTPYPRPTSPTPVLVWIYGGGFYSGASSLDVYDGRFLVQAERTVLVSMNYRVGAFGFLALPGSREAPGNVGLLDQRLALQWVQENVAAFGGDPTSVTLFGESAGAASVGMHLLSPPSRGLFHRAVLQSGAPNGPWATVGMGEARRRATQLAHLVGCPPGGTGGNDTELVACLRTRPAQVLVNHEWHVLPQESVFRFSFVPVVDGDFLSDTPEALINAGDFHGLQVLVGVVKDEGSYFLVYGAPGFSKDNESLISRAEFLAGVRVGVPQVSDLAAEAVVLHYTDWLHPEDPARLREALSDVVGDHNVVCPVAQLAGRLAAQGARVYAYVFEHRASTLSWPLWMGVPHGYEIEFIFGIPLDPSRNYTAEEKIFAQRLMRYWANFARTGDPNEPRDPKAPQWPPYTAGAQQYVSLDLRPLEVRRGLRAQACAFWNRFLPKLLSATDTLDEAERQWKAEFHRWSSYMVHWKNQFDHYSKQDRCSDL

| SMILES | IC50 (Butyrylcholinesterase) | IC50 (Acetylcholinesterase [1]) | Ratio IC50 [2] | inhibition [3] | IC50 (Acetylcholinesterase [4]) | IC50 (Cholinesterase) |
| --- | --- | --- | --- | --- | --- | --- |
| CN(C)c1cc[n+](Cc2ccc(CCCCc3ccc(C[n+]4ccc(N(C)C)cc4)cc3)cc2)cc1 | 372 nM | 252 nM | 1.5 |  |  |  |
| CN(c1cc[n+](Cc2ccc(C[n+]3ccc(N(C)c4cc(Cl)cc(Cl)c4)cc3)cc2)cc1)c1cc(Cl)cc(Cl)c1 | 1600 nM | 5200 nM | 0.31 |  |  |  |
| c1cc(C[n+]2ccc(N3CCCCC3)cc2)ccc1CCc1ccc(C[n+]2ccc(N3CCCCC3)cc2)cc1 | 130 nM | 79 nM | 1.6 |  |  |  |
| c1cc(-c2ccc(C[n+]3ccc(N4CCCC4)cc3)cc2)ccc1C[n+]1ccc(N2CCCC2)cc1 | 1270 nM | 90 nM | 14 |  |  |  |
| CN(c1cc[n+](Cc2cc(C[n+]3ccc(N(C)c4cc(Cl)cc(Cl)c4)cc3)cc(C[n+]3ccc(N(C)c4cc(Cl)cc(Cl)c4)cc3)c2)cc1)c1cc(Cl)cc(Cl)c1 | 679 nM | 1770 nM | 0.38 |  |  |  |
| Cc1ccc(C[n+]2ccc(N3CCCC3)cc2)cc1 |  |  |  | 52% |  |  |
| c1ccc2c(c1)CCN(c1cc[n+](Cc3ccc(-c4ccc(C[n+]5ccc(N6CCc7ccccc7C6)cc5)cc4)cc3)cc1)C2 | 318 nM | 346 nM | 0.92 |  |  |  |
| CN(C)c1cc[n+](C[C@@H]2C[C@H]2C[n+]2ccc(N(C)C)cc2)cc1 (relative stereo) |  | 8780 nM |  |  |  |  |
| c1cc(C[n+]2ccc(N3CCCCC3)cc2)cc(C[n+]2ccc(N3CCCCC3)cc2)c1 | 335 nM | 114 nM | 2.9 |  |  |  |
| CN(C)c1cc[n+](Cc2ccc(CCc3ccc(C[n+]4ccc(N(C)C)cc4)cc3)cc2)cc1 | 1360 nM | 628 nM | 2.2 |  |  |  |
| c1cc(C[n+]2ccc(N3CCCCCC3)cc2)ccc1CCCc1ccc(C[n+]2ccc(N3CCCCCC3)cc2)cc1 | 163 nM | 202 nM | 0.81 |  |  |  |
| c1cc(C[N+]23CCC(CC2)CC3)cc(-c2cccc(C[N+]34CCC(CC3)CC4)c2)c1 | 89 nM | 1100 nM | 0.081 |  | 620 nM | 36 nM |
| CN(c1ccccc1)c1cc[n+](Cc2cccc(C[n+]3ccc(N(C)c4ccccc4)cc3)c2)cc1 | 910 nM | 1150 nM | 0.79 |  |  |  |
| c1cc(C[n+]2ccc(N3CCCCC3)cc2)ccc1Cc1ccc(C[n+]2ccc(N3CCCCC3)cc2)cc1 | 62 nM | 83 nM | 0.75 |  |  |  |
| c1ccc(-c2cc[n+](Cc3cccc(-c4cccc(C[n+]5ccc(-c6ccccc6)cc5)c4)c3)cc2)cc1 | 797 nM | 553 nM | 1.4 |  |  |  |
| c1ccc(C[n+]2ccc(N3CCCC3)cc2)cc1 |  | 5530 nM |  |  |  |  |
| OC1C[N+]2(Cc3ccc(CCc4ccc(C[N+]56CCC(CC5)C(O)C6)cc4)cc3)CCC1CC2 (stereo unspecified) | 2090 nM | 97 nM | 22 |  |  |  |
| c1cc(C[n+]2ccc(N3CCc4ccccc4C3)cc2)cc(C[n+]2ccc(N3CCc4ccccc4C3)cc2)c1 | 190 nM | 281 nM | 0.68 |  |  |  |
| CN(c1cc[n+](Cc2ccc(-c3ccc(C[n+]4ccc(N(C)c5cc(Cl)cc(Cl)c5)cc4)cc3)cc2)cc1)c1cc(Cl)cc(Cl)c1 | 550 nM | 2870 nM | 0.19 |  |  |  |
| CN(c1ccc(Cl)cc1)c1cc[n+](Cc2ccc(-c3ccc(C[n+]4ccc(N(C)c5ccc(Cl)cc5)cc4)cc3)cc2)cc1 | 683 nM | 3070 nM | 0.22 |  |  |  |
| Cc1c2c(C)c3c(C)c1C[n+]1ccc(cc1)NCc1cc(cc(c1)CNc1cc[n+](cc1)C3)CNc1cc[n+](cc1)C2 | 516 nM | 3680 nM | 0.14 |  |  |  |
| COc1cc2c(cc1OC)CN(c1cc[n+](Cc3cccc(C[n+]4ccc(N5CCc6cc(OC)c(OC)cc6C5)cc4)c3)cc1)CC2 | 890 nM | 2100 nM | 0.42 |  |  |  |
| c1cc(C[n+]2ccc(N3CCOCC3)cc2)ccc1CCc1ccc(C[n+]2ccc(N3CCOCC3)cc2)cc1 | 4480 nM | 2670 nM | 1.7 |  |  |  |
| c1cc(C[n+]2ccc(N3CCCCC3)cc2)ccc1CCCc1ccc(C[n+]2ccc(N3CCCCC3)cc2)cc1 | 149 nM | 163 nM | 0.91 |  |  |  |
| c1cc(C[n+]2ccc(N3CCCC3)cc2)ccc1Cc1ccc(C[n+]2ccc(N3CCCC3)cc2)cc1 | 576 nM | 183 nM | 3.1 |  |  |  |
